Experimental data reported in ChEMBL document CHEMBL4229518, “New β-lactam - Tetramic acid hybrids show promising antibacterial activities” (Bioorg Med Chem Lett, 2018).
≈ marks a conversion by molar mass, not a printed value. Calls of active or inactive are those of the source. The calls are words filed in the database; no cut-off is given here.

Legend:
Acinetobacter baumannii = assay: Antimicrobial activity against Acinetobacter baumannii ATCC 19606 after 18 to 20 hrs by microbroth dilution method; assay type: functional; details: ATCC 19606 = CIP 70.34 = JCM 6841
Escherichia coli [1] = assay: Antimicrobial activity against Escherichia coli BW25113 after 18 to 20 hrs by microbroth dilution method; assay type: functional
Escherichia coli [2] = assay: Antimicrobial activity against tolC deficient Escherichia coli JW5503-1 after 18 to 20 hrs by microbroth dilution method; assay type: functional
Klebsiella pneumoniae [3] = assay: Antimicrobial activity against Klebsiella pneumoniae ATCC 33495 after 18 to 20 hrs by microbroth dilution method; assay type: functional
Pseudomonas aeruginosa = assay: Antimicrobial activity against Pseudomonas aeruginosa PAO1 after 18 to 20 hrs by microbroth dilution method; assay type: functional
Proteus mirabilis = assay: Antimicrobial activity against Proteus mirabilis ATCC 25933 after 18 to 20 hrs by microbroth dilution method; assay type: functional
Klebsiella pneumoniae [4] = assay: Antimicrobial activity against Klebsiella pneumoniae isolate SJ 1 after 18 to 20 hrs by microbroth dilution method; assay type: functional
Klebsiella pneumoniae [5] = assay: Antimicrobial activity against Klebsiella pneumoniae isolate SJ 2 after 18 to 20 hrs by microbroth dilution method; assay type: functional
Klebsiella pneumoniae [6] = assay: Antimicrobial activity against Klebsiella pneumoniae isolate SJ 3 after 18 to 20 hrs by microbroth dilution method; assay type: functional
Klebsiella pneumoniae [7] = assay: Antimicrobial activity against Klebsiella pneumoniae isolate SJ 4 after 18 to 20 hrs by microbroth dilution method; assay type: functional
Klebsiella pneumoniae [8] = assay: Antimicrobial activity against Klebsiella pneumoniae isolate SJ 5 after 18 to 20 hrs by microbroth dilution method; assay type: functional
Escherichia coli [9] = assay: Antimicrobial activity against Escherichia coli isolate SJ 1 after 18 to 20 hrs by microbroth dilution method; assay type: functional
Escherichia coli [10] = assay: Antimicrobial activity against Escherichia coli isolate SJ 2 after 18 to 20 hrs by microbroth dilution method; assay type: functional
Escherichia coli [11] = assay: Antimicrobial activity against Escherichia coli isolate SJ 3 after 18 to 20 hrs by microbroth dilution method; assay type: functional
Escherichia coli [12] = assay: Antimicrobial activity against Escherichia coli isolate SJ 4 after 18 to 20 hrs by microbroth dilution method; assay type: functional
Escherichia coli [13] = assay: Antimicrobial activity against Escherichia coli isolate SJ 5 after 18 to 20 hrs by microbroth dilution method; assay type: functional
Escherichia coli [14] = assay: Antimicrobial activity against Escherichia coli isolate SJ 6 after 18 to 20 hrs by microbroth dilution method; assay type: functional
Escherichia coli [15] = assay: Antimicrobial activity against Escherichia coli ATCC 35218 expressing TEM-1 beta lactamases after 18 to 20 hrs by microbroth dilution method; assay type: functional
Escherichia coli [16] = assay: Antimicrobial activity against Escherichia coli ATCC 25922 after 18 to 20 hrs by microbroth dilution method; assay type: functional
Escherichia coli [17] = assay: Induction of proton motive force collapse in Escherichia coli BW25113 at 100 uM by flow cytometry; assay type: functional, organism-based
Bacillus subtilis = assay: Antimicrobial activity against Bacillus subtilis ATCC 23857 after 18 to 20 hrs by microbroth dilution method; assay type: functional
Bacillus anthracis = assay: Antimicrobial activity against Bacillus anthracis Sterne 34F2 after 18 to 20 hrs by microbroth dilution method; assay type: functional
Bacillus cereus = assay: Antimicrobial activity against Bacillus cereus ATCC 14579 after 18 to 20 hrs by microbroth dilution method; assay type: functional
Enterococcus faecalis = assay: Antimicrobial activity against Enterococcus faecalis ATCC 33186 after 18 to 20 hrs by microbroth dilution method; assay type: functional
Staphylococcus aureus [18] = assay: Antimicrobial activity against methicillin-susceptible Staphylococcus aureus ATCC 29213 after 18 to 20 hrs by microbroth dilution method; assay type: functional
Staphylococcus aureus [19] = assay: Antimicrobial activity against methicillin-susceptible Staphylococcus aureus NRS70 after 18 to 20 hrs by microbroth dilution method; assay type: functional
Streptococcus pneumoniae = assay: Antimicrobial activity against Streptococcus pneumoniae R6 after 18 to 20 hrs by microbroth dilution method; assay type: functional
Streptococcus pyogenes = assay: Antimicrobial activity against Streptococcus pyogenes ATCC 700294 after 18 to 20 hrs by microbroth dilution method; assay type: functional; details: M1 GAS
Enterobacter cloacae = assay: Antimicrobial activity against Enterobacter cloacae ATCC 13047 after 18 to 20 hrs by microbroth dilution method; assay type: functional; details: subsp. cloacae ATCC 13047
[20] = test system: Stenotrophomonas maltophilia; assay: Antimicrobial activity against Stenotrophomonas maltophilia ATCC 700475 after 18 to 20 hrs by microbroth dilution method; assay type: functional

Structure (SMILES)	MIC (Acinetobacter baumannii) [µg/mL]	MIC (Escherichia coli [1]) [µg/mL]	MIC (Escherichia coli [2]) [µg/mL]	MIC (Klebsiella pneumoniae [3]) [µg/mL]	MIC (Pseudomonas aeruginosa) [µg/mL]	MIC (Proteus mirabilis) [µg/mL]	MIC (Klebsiella pneumoniae [4]) [µg/mL]	MIC (Klebsiella pneumoniae [5]) [µg/mL]	MIC (Klebsiella pneumoniae [6]) [µg/mL]	MIC (Klebsiella pneumoniae [7]) [µg/mL]	MIC (Klebsiella pneumoniae [8]) [µg/mL]	MIC (Escherichia coli [9]) [µg/mL]	MIC (Escherichia coli [10]) [µg/mL]	MIC (Escherichia coli [11]) [µg/mL]	MIC (Escherichia coli [12]) [µg/mL]	MIC (Escherichia coli [13]) [µg/mL]	MIC (Escherichia coli [14]) [µg/mL]	MIC (Escherichia coli [15]) [µg/mL]	MIC (Escherichia coli [16]) [µg/mL]	also measured
CO[C@@]1(NC(=O)C2SC(=C(C(N)=O)C(=O)O)S2)C(=O)N2C(C(=O)O)=C(CSc3nnnn3C)CS[C@@H]21 (some centres not stated) [CEFOTETAN]	100 (≈ 174 µM)	25 (≈ 43.4 µM)	1.56 (≈ 2.71 µM)	< 0.2	> 200	< 0.2	< 0.2	< 0.2	0.39 (≈ 0.678 µM)	0.39 (≈ 0.678 µM)	1.56 (≈ 2.71 µM)	0.39 (≈ 0.678 µM)	1.56 (≈ 2.71 µM)	0.78 (≈ 1.36 µM)	1.56 (≈ 2.71 µM)	12.5 (≈ 21.7 µM)	25 (≈ 43.4 µM)	< 0.2	1.56 (≈ 2.71 µM)	
CO[C@@]1(NC(=O)CCCC(=O)C2=C(O)[C@@H](CCC(=O)O)NC2=O)C(=O)N2C(C(=O)O)=C(CSc3nnnn3C)CS[C@@H]21	> 200	200 (≈ 320 µM)	200 (≈ 320 µM)	200 (≈ 320 µM)	> 200	50 (≈ 79.9 µM)	100 (≈ 160 µM)	25 (≈ 40 µM)	200 (≈ 320 µM)	100 (≈ 160 µM)	> 200	200 (≈ 320 µM)	200 (≈ 320 µM)	200 (≈ 320 µM)	> 200	> 200	> 200	50 (≈ 79.9 µM)	200 (≈ 320 µM)	Activity (Escherichia coli [17]): inactive
CO[C@@]1(NC(=O)CSCC#N)C(=O)N2C(C(=O)O)=C(CSc3nnnn3C)CS[C@@H]21 [CEFMETAZOLE]	25 (≈ 53 µM)	0.39 (≈ 0.827 µM)	1.56 (≈ 3.31 µM)	3.13 (≈ 6.64 µM)	> 200	0.39 (≈ 0.827 µM)	0.39 (≈ 0.827 µM)	0.39 (≈ 0.827 µM)	0.39 (≈ 0.827 µM)	0.78 (≈ 1.65 µM)	1.56 (≈ 3.31 µM)	0.39 (≈ 0.827 µM)	0.78 (≈ 1.65 µM)	0.78 (≈ 1.65 µM)	0.78 (≈ 1.65 µM)	6.25 (≈ 13.3 µM)	12.5 (≈ 26.5 µM)	0.39 (≈ 0.827 µM)	0.78 (≈ 1.65 µM)	
N[C@@H](C(=O)N[C@@H]1C(=O)N2C(C(=O)O)=C(Cl)CS[C@H]12)c1ccccc1 [CEFACLOR ANHYDROUS]	200 (≈ 544 µM)	6.25 (≈ 17 µM)	6.25 (≈ 17 µM)	1.56 (≈ 4.24 µM)	> 200	3.13 (≈ 8.51 µM)	200 (≈ 544 µM)	1.56 (≈ 4.24 µM)	1.56 (≈ 4.24 µM)	1.56 (≈ 4.24 µM)	> 200	50 (≈ 136 µM)	200 (≈ 544 µM)	12.5 (≈ 34 µM)	> 200	50 (≈ 136 µM)	> 200	50 (≈ 136 µM)	12.5 (≈ 34 µM)	MIC (Bacillus subtilis): < 0.2 µg/mL; MIC (Bacillus anthracis): 0.39 µg/mL (≈ 1.06 µM); MIC (Bacillus cereus): > 200 µg/mL; MIC (Enterococcus faecalis): 25 µg/mL (≈ 68 µM); MIC (Staphylococcus aureus [18]): 1.56 µg/mL (≈ 4.24 µM); MIC (Staphylococcus aureus [19]): 100 µg/mL (≈ 272 µM); MIC (Streptococcus pneumoniae): 0.78 µg/mL (≈ 2.12 µM); MIC (Streptococcus pyogenes): 0.39 µg/mL (≈ 1.06 µM); MIC (Enterobacter cloacae): > 200 µg/mL; MIC [20]: > 200 µg/mL
